The values below come from ChEMBL document CHEMBL1127643, “Mechanism-based design, synthesis, and in vitro antimalarial testing of new 4-methylated trioxanes structurally related to artemisinin: the importance of a carbon-centered radical for antimalarial activity” (J Med Chem, 1994).

Test [1] has as its system Plasmodium falciparum. The test is described as follows: In vitro antimalarial activity against Plasmodium falciparum D6 Africa. The test is classed as functional, organism-based.
Test [2] deals with Plasmodium falciparum. In words: In vitro antimalarial activity against Plasmodium falciparum W-2 Indochina. The test is classed as functional, organism-based.

Values after ≈ are worked out from the molar mass of the structure shown.

On to `CO[C@H]1O[C@]2(C)OO[C@]13[C@H](CCOCc1ccccc1)CCC[C@@H]3CC2(C)C`, for which the concentration for half-maximal inhibition (IC50) in the test on Plasmodium falciparum [1] and with Plasmodium falciparum [2] was more than 500 ng/mL each time.
For `CO[C@H]1O[C@]2(C)OO[C@]13[C@H](CCO)CCC[C@@H]3C[C@@H]2C`, the figures for the IC50 with Plasmodium falciparum [1] and in the test with Plasmodium falciparum [2] were 3.5 ng/mL (≈ 0.0122 µM) and 4.5 ng/mL (≈ 0.0157 µM), respectively.
In the case of `CO[C@H]1O[C@]2(C)OO[C@]13[C@H](CCO)CCC[C@@H]3CC2(C)C`, the IC50 with Plasmodium falciparum [1] and in the test with Plasmodium falciparum [2] was more than 500 ng/mL in each case.
Consider `CO[C@H]1O[C@]2(C)OO[C@]13[C@H](CCO)CCC[C@@H]3C[C@H]2C`, for which the IC50 with Plasmodium falciparum [1] and with Plasmodium falciparum [2] was more than 500 ng/mL each time.
For `C[C@@H]1CC[C@H]2[C@@H](C)C(=O)O[C@@H]3O[C@@]4(C)CC[C@@H]1[C@]32OO4` [ARTEMISININ], the IC50 in the test with Plasmodium falciparum [1] and in the test with Plasmodium falciparum [2] was 8 ng/mL (≈ 0.0283 µM) each time.
